target: T1, human μ opiate receptor (Homo sapiens, UniProt P35372); experiment: Affinity for the human μ opiate receptor ([3H]-naloxone displacement, CHO-K1 receptor membrane preparation, SPA); format: binding; settings: test concentration of 1 μM; read-out: μ (binding on the μ opioid receptor, % inhibition)
T1 construct: purchased PerkinElmer Life Sciences, Zaventem, Belgium RB-HOM; host or cells: CHO-K1 cells (membrane preparation)
In short: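 At 1 μmol/l, compounds were scored for % displacement of 1 nmol/l [3H]-naloxone from CHO-K1-expressed human μ opiate receptor in a homogeneous SPA format (90 min, room temperature).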

T1 sequence (P35372 whole entry): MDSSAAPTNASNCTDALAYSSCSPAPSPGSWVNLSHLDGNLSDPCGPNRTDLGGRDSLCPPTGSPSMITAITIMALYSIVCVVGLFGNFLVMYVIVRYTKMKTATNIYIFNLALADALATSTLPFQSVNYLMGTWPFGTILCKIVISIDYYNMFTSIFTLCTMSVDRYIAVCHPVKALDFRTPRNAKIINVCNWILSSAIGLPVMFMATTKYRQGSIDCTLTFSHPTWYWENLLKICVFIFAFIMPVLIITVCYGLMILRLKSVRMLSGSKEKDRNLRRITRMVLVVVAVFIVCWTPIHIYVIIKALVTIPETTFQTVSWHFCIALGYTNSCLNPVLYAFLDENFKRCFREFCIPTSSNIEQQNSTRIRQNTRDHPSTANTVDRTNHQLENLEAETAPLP

| Structure (SMILES) | inhibition at 1 µM [%] |
| --- | --- |
| COc1ccc(S(=O)(=O)N2CCCC2COCC(=O)NCCC2CCC(C(c3cccs3)N(C)C)CC2)cc1 (centres unmarked) [Example 77, N-(2-(4-((dimethylamino)(thiophen-2-yl)methyl)cyclohexyl)ethyl)-2-((1-(4-methoxyphenylsulfonyl)pyrrolidin-2-yl)methoxy)acetamide] | 96 |
| COc1cc(C)c(S(=O)(=O)N2CCC(OCC(=O)NCC3CCC(C(c4cccs4)N(C)C)CC3)C2)c(C)c1 (centres unmarked) [Example 86, N-((4-((dimethylamino)(thiophen-2-yl)methyl)cyclohexyl)methyl)-2-(1-(4-methoxy-2,6-dimethylphenylsulfonyl)pyrrolidin-3-yloxy)acetamide] | 95 |
| CN(C)C(c1cccs1)C1CCC(CNC(=O)COC2CCN(S(=O)(=O)c3ccccc3)C2)CC1 (centres unmarked) [Example 36, N-((4-((dimethylamino)(thiophen-2-yl)methyl)cyclohexyl)methyl)-2-(1-(phenylsulfonyl)pyrrolidin-3-yloxy)acetamide] | 96 |
| CN(C)C(c1ccccc1)C1CCC(CNC(=O)COCCN(C)S(=O)(=O)c2cccc(C(F)(F)F)c2)CC1 (centres unmarked) [Example 91, N-((4-((dimethylamino)(phenyl)methyl)cyclohexyl)methyl)-2-(2-(N-methyl-3-(trifluoromethyl)phenylsulfonamido)ethoxy)acetamide] | 91 |
| COc1cc(C)c(S(=O)(=O)N2CCC(OCC(=O)NCCC3CCC(C(c4cccs4)N(C)C)CC3)C2)c(C)c1C (centres unmarked) [Example 74, N-(2-(4-((dimethylamino)(thiophen-2-yl)methyl)cyclohexyl)ethyl)-2-(1-(4-methoxy-2,3,6-trimethylphenylsulfonyl)pyrrolidin-3-yloxy)acetamide] | 90 |
| CN(C)C(c1cccs1)C1CCC(CNC(=O)COCCN(C)S(=O)(=O)c2ccc(Cl)cc2)CC1 (centres unmarked) [Example 55, 2-(2-(4-chloro-N-methylphenylsulfonamido)ethoxy)-N-((4-((dimethylamino)(thiophen-2-yl)methyl)cyclohexyl)methyl)acetamide] | 95 |
| COc1ccc(S(=O)(=O)N2CCCCC2COCC(=O)NCC2CCC(C(c3cccs3)N(C)C)CC2)cc1 (centres unmarked) [Example 45, N-((4-((dimethylamino)(thiophen-2-yl)methyl)cyclohexyl)methyl)-2-((1-(4-methoxyphenylsulfonyl)piperidin-2-yl)methoxy)acetamide] | 96 |
| Cc1cc(C)c(S(=O)(=O)N2CCC(OCC(=O)NCCC3CCC(C(c4cccs4)N(C)C)CC3)C2)c(C)c1 (centres unmarked) [Example 71, N-(2-(4-((dimethylamino)(thiophen-2-yl)methyl)cyclohexyl)ethyl)-2-(1-(mesitylsulfonyl)pyrrolidin-3-yloxy)acetamide] | 94 |
| COc1cc(C)c(S(=O)(=O)N2CCC(OCC(=O)NC3CCC(C(c4cccs4)N(C)C)CC3)CC2)c(C)c1C (centres unmarked) [Example 1, N-(4-((dimethylamino)(thiophen-2-yl)methyl)cyclohexyl)-2-(1-(4-methoxy-2,3,6-trimethylphenylsulfonyl)piperidin-4-yloxy)acetamide] | 100 |
| Cc1ccc(S(=O)(=O)N(C)CCOCC(=O)NCC2CCC(C(c3cccs3)N(C)C)CC2)cc1 (centres unmarked) [Example 4, N-((4-((dimethylamino)(thiophen-2-yl)methyl)cyclohexyl)methyl)-2-(2-(N,4-dimethylphenylsulfonamido)ethoxy)acetamide] | 99 |
| COc1ccc(S(=O)(=O)N2Cc3ccccc3CC2COCC(=O)NC2CCC(C(c3cccs3)N(C)C)CC2)cc1 (centres unmarked) [Example 47, N-(4-((dimethylamino)(thiophen-2-yl)methyl)cyclohexyl)-2-((2-(4-methoxyphenylsulfonyl)-1,2,3,4-tetrahydroisoquinolin-3-yl)methoxy)acetamide] | 96 |
| CN(C)C(c1ccccc1)C1CCC(CNC(=O)COC2CCN(S(=O)(=O)c3ccc(Cl)cc3Cl)C2)CC1 (centres unmarked) [Example 67, 2-(1-(2,4-dichlorophenylsulfonyl)pyrrolidin-3-yloxy)-N-((4-((dimethylamino)(phenyl)methyl)cyclohexyl)methyl)acetamide] | 96 |
| CN(C)C(c1ccccc1)C1CCC(NC(=O)COCCN(C)S(=O)(=O)c2c(Cl)cc(Cl)cc2Cl)CC1 (centres unmarked) [Example 34, N-(4-((dimethylamino)(phenyl)methyl)cyclohexyl)-2-(2-(2,4,6-trichloro-N-methylphenylsulfonamido)ethoxy)acetamide] | 96 |
| CCN(CCOCC(=O)NC1CCC(C(c2cccs2)N(C)C)CC1)S(=O)(=O)c1c(C)cc(OC)c(C)c1C (centres unmarked) [Example 59, N-(4-((dimethylamino)(thiophen-2-yl)methyl)cyclohexyl)-2-(2-(N-ethyl-4-methoxy-2,3,6-trimethylphenylsulfonamido)ethoxy)acetamide] | 95 |
| COc1cc(C)c(S(=O)(=O)N(C)CCOCC(=O)NCCC2CCC(C(c3cccs3)N(C)C)CC2)c(C)c1 (centres unmarked) [Example 84, N-(2-(4-((dimethylamino)(thiophen-2-yl)methyl)cyclohexyl)ethyl)-2-(2-(4-methoxy-N,2,6-trimethylphenylsulfonamido)ethoxy)acetamide] | 95 |
| COc1ccc(S(=O)(=O)N(C)CCOCC(=O)NC2CCC(C(c3cccs3)N(C)C)CC2)cc1 (centres unmarked) [Example 73, N-(4-((dimethylamino)(thiophen-2-yl)methyl)cyclohexyl)-2-(2-(4-methoxy-N-methylphenylsulfonamido)ethoxy)acetamide] | 90 |
| CN(C)C(c1cccs1)C1CCC(CCNC(=O)COCCN(C)S(=O)(=O)c2ccc(OC(F)(F)F)cc2)CC1 (centres unmarked) [Example 65, N-(2-(4-((dimethylamino)(thiophen-2-yl)methyl)cyclohexyl)ethyl)-2-(2-(N-methyl-4-(trifluoromethoxy)phenylsulfonamido)ethoxy)acetamide] | 96 |
| COc1cc(C)c(S(=O)(=O)N2CCC(CCOCC(=O)NC3CCC(C(c4cccs4)N(C)C)CC3)CC2)c(C)c1C (centres unmarked) [Example 5, N-(4-((dimethylamino)(thiophen-2-yl)methyl)cyclohexyl)-2-(2-(1-(4-methoxy-2,3,6-trimethylphenylsulfonyl)piperidin-4-yl)ethoxy)acetamide] | 99 |
| COc1cc(C)c(S(=O)(=O)N(C)CCOCC(=O)NCCC2CCC(C(c3cccs3)N(C)C)CC2)c(C)c1C (centres unmarked) [Example 52, N-(2-(4-((dimethylamino)(thiophen-2-yl)methyl)cyclohexyl)ethyl)-2-(2-(4-methoxy-N,2,3,6-tetramethylphenylsulfonamido)ethoxy)acetamide] | 95 |
| CN(C)C(c1ccccc1)C1CCC(CNC(=O)COC2CCN(S(=O)(=O)c3ccc(Cl)cc3)C2)CC1 (centres unmarked) [Example 81, 2-(1-(4-chlorophenylsulfonyl)pyrrolidin-3-yloxy)-N-((4-((dimethylamino)(phenyl)methyl)cyclohexyl)methyl)acetamide] | 91 |
| COc1ccc(S(=O)(=O)N2CCCCC2CCOCC(=O)NCC2CCC(C(c3ccccc3)N(C)C)CC2)cc1 (centres unmarked) [Example 89, N-((4-((dimethylamino)(phenyl)methyl)cyclohexyl)methyl)-2-(2-(1-(4-methoxyphenylsulfonyl)piperidin-2-yl)ethoxy)acetamide] | 93 |
| Cc1cc(C)c(S(=O)(=O)N(C)CCOCC(=O)NCC2CCC(C(c3cccs3)N(C)C)CC2)c(C)c1 (centres unmarked) [Example 57, N-((4-((dimethylamino)(thiophen-2-yl)methyl)cyclohexyl)methyl)-2-(2-(N,2,4,6-tetramethylphenylsulfonamido)ethoxy)acetamide] | 95 |
| CN(C)C(c1cccc(F)c1)C1CCC(CNC(=O)COCCN(C)S(=O)(=O)c2ccc(Cl)cc2Cl)CC1 (centres unmarked) [Example 70, 2-(2-(2,4-dichloro-N-methylphenylsulfonamido)ethoxy)-N-((4-((dimethylamino)(3-fluorophenyl)methyl)cyclohexyl)methyl)acetamide] | 91 |
| CN(C)C(c1cccs1)C1CCC(CNC(=O)COCCN(C)S(=O)(=O)c2ccc(F)cc2)CC1 (centres unmarked) [Example 56, N-((4-((dimethylamino)(thiophen-2-yl)methyl)cyclohexyl)methyl)-2-(2-(4-fluoro-N-methylphenylsulfonamido)ethoxy)acetamide] | 95 |
| CN(C)C(c1ccccc1)C1CCC(NC(=O)COC2CCCCC2N(C)S(=O)(=O)c2ccc(Cl)c(Cl)c2)CC1 (centres unmarked) [Example 39, 2-(2-(3,4-dichloro-N-methylphenylsulfonamido)cyclohexyloxy)-N-(4-((dimethylamino)(phenyl)methyl)cyclohexyl)acetamide] | 96 |
| COc1cc(C)c(S(=O)(=O)N2CCC(CCOCC(=O)NCCC3CCC(C(c4cccs4)N(C)C)CC3)CC2)c(C)c1C (centres unmarked) [Example 75, N-(2-(4-((dimethylamino)(thiophen-2-yl)methyl)cyclohexyl)ethyl)-2-(2-(1-(4-methoxy-2,3,6-trimethylphenylsulfonyl)piperidin-4-yl)ethoxy)acetamide] | 92 |
| COc1ccc(S(=O)(=O)N2CCCCC2COCC(=O)NCC2CCC(C(c3ccccc3)N(C)C)CC2)cc1 (centres unmarked) [Example 88, N-((4-((dimethylamino)(phenyl)methyl)cyclohexyl)methyl)-2-((1-(4-methoxyphenylsulfonyl)piperidin-2-yl)methoxy)acetamide] | 94 |
| COc1ccc(S(=O)(=O)N2CCCCC2CCOCC(=O)NCC2CCC(C(c3cccs3)N(C)C)CC2)cc1 (centres unmarked) [Example 90, N-((4-((dimethylamino)(thiophen-2-yl)methyl)cyclohexyl)methyl)-2-(2-(1-(4-methoxyphenylsulfonyl)piperidin-2-yl)ethoxy)acetamide] | 95 |
| Cc1ccc(S(=O)(=O)N(C)CCOCC(=O)NCCC2CCC(C(c3cccs3)N(C)C)CC2)cc1 (centres unmarked) [Example 82, N-(2-(4-((dimethylamino)(thiophen-2-yl)methyl)cyclohexyl)ethyl)-2-(2-(N,4-dimethylphenylsulfonamido)ethoxy)acetamide] | 95 |

Reference: US8106055B2, “Substituted amide compounds” (Gruenenthal GmbH, priority 2007, dated 2012)
